Entries after “also recorded” stand apart in the source; their conditions may differ. Where a SMILES comes first, the peptide text is derived from it. Bridges are numbered along the chain shown (N, C = ends).
How the values were obtained:
TNFα = details: cited from earlier work
Description: Several potential small molecules of TNFα inhibitors have already been reported.

TNFα trimer = details: cited from earlier work
Description: Several potential small molecules of TNFα inhibitors have already been reported. […] Furthermore, through structure-based virtual screening and biological assay, Xie’s group identified two novel antagonists, T1 and R1 (Figure S1A), which could bind to TNFα or TNFR1, with low-micromolar binding affinities to TNFα and TNFR1, respectively ...

L929 cells = details: α_CC8, 200 μM, 24 h, CCK-8, 450 nm, n = 3
Description: L929 cells were seeded in a 96-well plate at a density of 8000 cells per well and cultured for 24 h under standard conditions. Then, the liquid in the wells was discarded, and 100 µL of medium containing different concentrations of cyclic peptides was added. After incubation for 24 h, the liquid in the well was discarded, and the medium was replaced with CCK-8 working solution (100 μL RPMI 1640 medium containing 5% CCK-8) and incubated in the dark for 2 h. The absorbance of each well at 450 nm was detected with a microplate reader. The same operation was performed with wells not seeded with cells as a blank group to eliminate systematic errors. Cell viability was calculated according to the following formula:(7) Cell viability(%)=(ODtest−ODblank)/(ODcontrol−ODblank)×100%

[1] = system: TNFα-mediated cytotoxicity in L929 cells; experiment: Neutralization of TNFα induced necrosis in L929 cells
Description: L929 cells were seeded at a density of 8000 cells/well in a 96-well plate and incubated for 24 h in RPMI 1640 with 10% FBS at 37 °C. The experiment was divided into a blank group, a control group, a positive control group, and an experimental group. […] Serially diluted α_CC8 was added to cells and incubated at 37 °C, 5% CO2 for 2 h initially, and then 50 μL 10 ng/mL human TNFα was added and incubated overnight (17 h). 1 μg/mL Etanercept was used as a positive control. Subsequently, 100 μL 5% CCK-8 was added per well, followed by incubation of 2 h. The control group consisted of normal cultured cells without TNFα stimulation, while the blank control group contained empty wells without cells. At last, cell viability was confirmed by measuring the absorbance of each well at 450 nm. Cell viability was calculated according to Formula (7). Data was analyzed with SPSSAU (https://spssau.com/, Accessed on 14 August 2023) using the paired t-test to compare the differences between the experimental and control groups.

hTNFR1 = biological target: T1, hTNFR1 (Homo sapiens, UniProt P19438); experiment: ELISA binding affinity to hTNFR1
T1 sequence (P19438 30-455): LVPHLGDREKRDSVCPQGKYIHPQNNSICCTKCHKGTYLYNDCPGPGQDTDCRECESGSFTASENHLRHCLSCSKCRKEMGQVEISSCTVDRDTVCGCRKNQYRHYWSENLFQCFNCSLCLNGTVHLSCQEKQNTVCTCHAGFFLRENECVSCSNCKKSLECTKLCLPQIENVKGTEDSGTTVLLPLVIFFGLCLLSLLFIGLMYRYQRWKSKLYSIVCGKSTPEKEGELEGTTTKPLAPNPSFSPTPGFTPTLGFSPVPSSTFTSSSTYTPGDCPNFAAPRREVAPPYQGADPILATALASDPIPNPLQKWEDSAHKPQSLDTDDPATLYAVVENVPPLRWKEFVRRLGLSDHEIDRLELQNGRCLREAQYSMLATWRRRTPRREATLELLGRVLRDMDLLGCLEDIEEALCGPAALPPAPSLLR
Description: The hTNFR1 (100 ng) was coated on a 96-well ELISA plate (BIOFIL, Guangzhou, China) overnight at 4 °C, followed by blocking the plate with 200 μL of 3% skim milk solution in PBST (PBS, 0.05% Tween20) for 2 h at 37 °C. […] After incubating with the cyclic peptides for 2 h at room temperature, […] mAB (Solarbio, Beijing, China) was diluted at 1:500, and was incubated for an additional 2 h at room temperature. Five washes with PBST were carried out between each incubation to remove nonspecific absorbance. After the final wash, the samples were incubated in the dark with freshly prepared TMB Chromogen Solution (Sangon Biotech, Shanghai, China) for 10 min at room temperature to develop the signals. After adding the stop solution (1 M H2SO4), the plates were read at 450 nm on a plate reader. The raw data were processed to calculate the Kd value.

Compound: Cc1cc2occ(CN(C)CCN(C)Cc3cn(-c4cccc(C(F)(F)F)c4)c4ccccc34)c(=O)c2cc1C [SPD-304, reference compound]
- Kd (TNFα; TNFα small molecule antagonist): 5.36 µM
- effect on TNFα trimer (in words) (TNFα trimer): greatly increase the dissociation rate of the TNFα trimer

Compound: CC[C@H](C)[C@@H]1NC(=O)[C@H](CCCNC(=N)N)NC(=O)[C@H](CO)NC(=O)[C@H]([C@@H](C)CC)NC(=O)[C@H]([C@@H](C)O)NC(=O)[C@@H](N)CSSC[C@@H](C(=O)O)NC(=O)[C@H](CO)NC(=O)[C@H](CC(C)C)NC(=O)[C@H](CC(C)C)NC(=O)[C@H](CC(N)=O)NC(=O)[C@H](C(C)C)NC(=O)[C@H](CCCCN)NC(=O)[C@H]([C@@H](C)O)NC(=O)[C@H](CCC(N)=O)NC(=O)[C@H](Cc2ccc(O)cc2)NC(=O)[C@H](CO)NC(=O)[C@H](C(C)C)NC(=O)[C@H](C)NC1=O [α_CC8] (H-CTISRIAVSYQTKVNLLSC-OH; disulfide 1-19; N-terminus and C-terminus assumed)
- survival rate of L929 cells (L929 cells): ≤ 90%
- inhibition of TNFα-mediated cytotoxicity (in words) ([1]; L929 cells): effectively inhibit the TNFα-mediated cytotoxicity; also recorded: better bioactivity and lower effective concentration than R1_CC4; also recorded: improve cell viability significantly by inhibiting TNFα-mediated necrosis; also recorded: higher biological activity and effective concentration than R1_CC4
- concentration at which survival rate increased significantly ([1]; L929 cells, human TNFα 10 ng/mL, 17 h, CCK-8, n = 3): 60 µM
- increase of cell survival rate ([1]; α_CC8 60 μM, 2 h with cells, then human TNFα 17 h, n = 3): 17.8%

Compound: TNFα
- survival rate of L929 cells after TNFα ([1]; TNFα alone, 10 ng/mL, 17 h, average): 42%

Compound: CC[C@H](C)[C@@H]1NC(=O)[C@H](CCCNC(=N)N)NC(=O)[C@H](CO)NC(=O)[C@H]([C@@H](C)CC)NC(=O)[C@H]([C@@H](C)O)NC(=O)[C@@H](N)CSSC[C@@H](C(=O)O)NC(=O)[C@H](CO)NC(=O)[C@H](CC(C)C)NC(=O)[C@H](CCCNC(=N)N)NC(=O)[C@H](CC(N)=O)NC(=O)[C@H](C(C)C)NC(=O)[C@H](CCCCN)NC(=O)[C@H]([C@@H](C)O)NC(=O)[C@H](CCC(N)=O)NC(=O)[C@H](Cc2ccc(O)cc2)NC(=O)[C@H](CO)NC(=O)[C@H](C(C)C)NC(=O)[C@H](CCCCN)NC1=O [L16R] (H-CTISRIKVSYQTKVNRLSC-OH; disulfide 1-19; N-terminus and C-terminus assumed)
- binding to hTNFR1 (in words) (hTNFR1): good binding condition with hTNFR1

Compound: Etanercept
- blocking effect compared with the cyclic peptides (in words) ([1]; Etanercept 1 μg/mL, positive control, L929 cells): stronger blocking effect on the formation of TNFα/TNFR1
- TNFα binding (in words) (TNFα; background statement, no reference given): strong ability to bind TNFα

Reference: article PMC11547827, “Discovery of Cyclic Peptide Inhibitors Targeted on TNFα-TNFR1 from Computational Design and Bioactivity Verification” (Molecules, 2024)
